Where two headings read alike, the source gives them in different places.
What was measured:
tau construct K19 = tau construct K19 (Homo sapiens, UniProt P10636); experiment: Thioflavine S (ThS) assay for aggregation of tau; type: biochemical
Procedure: Thioflavine S (ThS) Assay for aggregation of tau: 10 μM of the tau construct K19 were incubated with compounds in a concentration range from 1 nM up to 200 μM in the presence of 2.5 μM heparin in 50 mM NH4Ac buffer over night at 37° C. After addition of 20 μM ThS the signal was measured at 521 nm (emission) at an excitation wavelength of 440 nm. The results of this assay are presented in the IC50 column and DC50 column of Table 1 below.

N2a/K18ΔK280 cells = experiment: Tau aggregation and inhibition assay in cells (ThS staining); type: cell-based; details: for inhibition at 10 µM: 120 h, read-out: Inhibition in cells; for Inhibition in cells (result in words: cytotoxicity): compound 10 μM
Procedure: Selection of an N2a, Tet-On, G418-resistant cell line: N2a cells were cotransfected with both the pUHD172-1 plasmid (encoding the rtTA, obtained from H. Bujard, Heidelberg) and pEU-1 plasmid (encoding G418 resistance, a derivative of pRc/CMV, Invitrogen) (ratio 20:1; 1 μg/well of 6-well plates) using the DOTAP transfection reagent (Roche, Basel, CH). The cells were cultured in Eagle's Minimum Essential Medium (MEM) supplemented with 10% defined fetal bovine serum and subjected to G418 (600 μg/ml) and selection. The cells were fed with fresh media every 4 days for 3-4 weeks when single colonies appeared. Clones were tested for the induction level by transient transfection of pUHG 16-3 plasmid and the induction of β-galactosidase was measured.
Generation of inducible Tet-On cell lines: The DNA fragments encoding the appropriate tau constructs (K18WT, K18ΔK280, K18/ΔK280/PP) were inserted into the bidirectional vector pBI-5 between ClaI and SalI restriction sites (pBI-5 is an unpublished derivative of pBI-2, Baron et al., 1995). The pBI-5/K18-derived plasmids with pX343 (plasmid encoding the hygromycin resistance) were used for cotransfection of N2a/Tet-On, G418-resistant cells with the aid of DOTAP (20:1 plasmid ratio; 1 μg/well of 6-well plates). The cells were seeded at 4×10^5 cells per well. On the following day cells were transferred to 100-mm dishes and selected with 100 μg/ml of hygromycin and 600 μg/ml of G418. Clonal cell lines were screened for the inducible expression of K18 derivatives by measuring luciferase activity with the luciferase assay and immunofluorescence for tau protein with the polyclonal pan-tau antibody K9JA.
Induction of K18-derivatives in Tet-On N2a cells: The inducible N2a/K18-derivatives cells were cultured in MEM medium supplemented with 10% fetal calf serum, 2 mM glutamine and 0.1% nonessential amino acids. The expression of K18 constructs was induced by adding 1 μg doxycyclin (Dox) per 1 ml medium. The induction was continued for 7-11 days, the medium was changed 3 times (always complemented with doxycyclin). For tau solubility assays the cells were collected by pelleting during centrifugation at 1000×g for 5 min. The levels and solubility of tau K18/ΔK280 were determined following Greenberg and Davies (1990). The cells were homogenized (DIAX900, Heidolph, Schwabach, Germany) in 10 vol (w/v) of buffer consisting of 10 mM Tris-HCl (pH 7.4), 0.8 M NaCl, 1 mM EGTA, and 10% sucrose. The homogenate was spun for 20 min at 20000×g, and the supernatant was retained. The pellet was re-homogenized in 5 vol of homogenization buffer and re-centrifuged. Both supernatants were combined, brought to 1% N-laurylsarkosinate (w/v) and incubated for 1 hr at room temperature while shaking, followed by centrifugation at 100 000×g for 1 hr. The sarkosyl-insoluble pellets were resuspended in 50 mM Tris-HCl (pH 7.4), 0.5 ml per 1 g of starting material. The supernatant and sarkosyl-insoluble pellet samples were analyzed by Western blotting. The amount of material loaded for supernatant and sarkosyl-insoluble pellet represented about 0.5% and 15% of the total material present in the supernatant and pellet respectively (the ratio between supernatant and sarkosyl insoluble pellet was always 1:30). For quantification of tau levels in each fraction, the Western blots were probed with pan-tau antibody K9JA and analyzed by densitometry (LAS 3000 and AIDA software, Raytest, Straubenhardt, Germany).
Quantitation of tau aggregation in cells by Thioflavin S (ThS) staining: Tet-On inducible undifferentiated N2a cells were treated with 1 μg/ml doxycyclin for 5, 7 or 9 days in a culture dish. After that the cells were trypsinized and transferred to coverslips and incubated overnight. The cells on the coverslips were fixed with 4% paraformaldehyde in PBS for 15 min, then permeabilized with 80% MeOH for 6 min at −20° C., and incubated with 0.1% Thioflavin S for 5 min and washed three times in ethanol (50%). […]

uninduced N2A cells = type: cell-based; details: cell death as percent of LDH released into medium vs total LDH, compound 10 μM
Procedure: Neurotoxicity assay: Neurotoxicity was assessed using an LDH (lactate dehydrogenase) assay kit (Roche, Mannheim, Germany) according to the manufacturer's specifications. In the viability assay the aggregation inhibitor compound was added at a final concentration of 10 μM to uninduced N2A cells. The activity of LDH was measured spectrophotometrically at 492 nm. Cell death was calculated as percent of LDH released into medium, compared to total LDH obtained after total cell lysis.

tau construct K18 = tau construct K18 (Homo sapiens, UniProt P10636); experiment: STD-NMR determination of dissociation constant; type: binding; details: STD-NMR titration data for proton I, 10 μM soluble K18, PBS/D2O, 295 K; read-out: KD of K18-BSc3094 complex
tau construct K18, sequence (P10636 with tags, fused parts or gaps isoform P10636-8 limits assumed): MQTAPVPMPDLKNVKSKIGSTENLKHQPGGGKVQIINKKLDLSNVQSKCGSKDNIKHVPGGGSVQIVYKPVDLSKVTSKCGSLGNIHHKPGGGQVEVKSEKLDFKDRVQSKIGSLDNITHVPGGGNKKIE
Procedure: STD-NMR: All STD NMR experiments were made in 3 mm Match® tubes in a 700 MHz spectrometer with cryogenic probe head at 295 K. The quantity of protein was kept small by the small diameter of the sample tubes. The spectra were measured with a spectral width of 11.0208 ppm and 32k data points with application of the WATERGATE water suppression (w5-sequence). The suppression of the protein resonances was reached by a spin lock pulse with a length of 15 ms and a attenuation of 11 dB. We used a pulse program in which the presaturation was accomplished alternating after each scan for the on and off resonance experiment at the selected frequencies. Thus artefacts are prevented during the difference formation due to in homogeneities. As point of irradiation for the on resonance experiments we selected 540 Hz (0.77 ppm). As point of irradiating for the off resonance experiments 40,000 Hz (57.1 ppm) was selected. The saturation duration in all experiments was 4 seconds, the attenuation of the saturation power 45 dB. 2044 scans were collected per experiment. After phase correction the FID was multiplied by an exponential function to improve the signal to noise ratio, which caused a line broadening of 1 Hz.
For the determination of the dissociation constant a sample with 10 μM soluble K18 and 80 μM DTT-d6 in 200 μL PBS/D2O was prepared. […]

[1] = 10 μM tau construct K19, 2.5 μM heparin, ThS fluorescence, read-out: DC50
[2] = 10 μM tau construct K19, 2.5 μM heparin, over night at 37° C., ThS fluorescence, read-out: ID50 (the source's name)
[3] = N2a/K18ΔK280 cells, compound 10 μM with doxycyclin, 5 days, ThS-positive cells scored
[4] = 10 μM tau construct K19, 2.5 μM heparin, ThS fluorescence

tau construct K19, sequence (P10636 with tags, fused parts or gaps isoform P10636-2 limits assumed): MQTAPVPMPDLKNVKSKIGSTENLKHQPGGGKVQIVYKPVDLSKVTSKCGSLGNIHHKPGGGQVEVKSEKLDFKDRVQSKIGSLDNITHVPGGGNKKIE

DC50 (tau construct K19; [1]) [µM] | IC50 (tau construct K19; [2]) [µM] | Kd (tau construct K18) [µM] | SMILES | inhibition at 10 µM (N2a/K18ΔK280 cells) [%] | LDH (uninduced N2A cells) [%] | inhibition at 10 µM (N2a/K18ΔK280 cells; [3]) [%] | IC50 (tau construct K19) [µM] | DC50 (tau construct K19; [4]) [µM] | Inhibition in cells (result in words: cytotoxicity) (N2a/K18ΔK280 cells; N2a/K18ΔK280 cells, 5 days)
1 | 1.9 | – | O=C(NNc1nc(-c2ccc(N3CCCC3)cc2)cs1)c1ccc(-c2ccccc2)cc1 [Comp. 9, N′-[4-(4-pyrrolidin-1-ylphenyl)-1,3-thiazol-2-yl]-1,1′-biphenyl-4-carbohydrazide] | – | 6.2 | 60.5 | – | – | –
– | – | – | O=C(NNc1nc(C2C3CC4CC(C3)CC2C4)cs1)c1cc2ccccc2[nH]1 (centres unmarked) [Comp. 54, N′-[4-(2-adamantyl)-1,3-thiazol-2-yl]-1H-indole-2-carbohydrazide] | 56.6 | −2.1 | – | > 200 | > 200 | –
– | – | – | O=C(NNc1nc(-c2ccccc2Br)cs1)c1cc2ccccc2[nH]1 [Comp. 60, N′-[4-(2-bromophenyl)-1,3-thiazol-2-yl]-1H-indole-2-carbohydrazide] | 41.5 | 0.1 | – | > 200 | > 200 | –
> 200 | > 200 | – | COc1ccc(-c2csc(NNC(=O)N3CCCCC3)n2)cc1 [Comp. 49, N′-[4-(4-methoxyphenyl)-1,3-thiazol-2-yl]piperidine-1-carbohydrazide] | – | −3.9 | – | – | – | Cytotoxic at 5 d
13.6 | 9.8 | – | Cc1sc(NNC(=O)c2ccc(-c3ccccc3)cc2)nc1-c1ccc([N+](=O)[O-])cc1 [Comp. 61, N′-[5-methyl-4-(4-nitrophenyl)-1,3-thiazol-2-yl]-1,1′-biphenyl-4-carbohydrazide] | – | 16.6 | 62.6 | – | – | –
0.7 | 1.6 | 62 ± 12 | O=C(NNc1nc(-c2ccc([N+](=O)[O-])cc2)cs1)c1ccc2[nH]cnc2c1 [Comp. 8, N′-[4-(4-Nitrophenyl)-1,3-thiazol-2-yl]-1H-benzimidazole-5-carbohydrazide] | – | 5.2 | 82.2 | – | – | –
162 | 69.1 | – | O=C(NNc1nc(-c2ccc(Cl)cc2)cs1)C1CCCCC1 [Comp. 68, N′-[4-(4-chlorophenyl)-1,3-thiazol-2-yl]cyclohexanecarbohydrazide] | – | −2.8 | 46.4 | – | – | –
– | – | – | O=C(NNc1nc(-c2ccc3ccccc3c2)cs1)c1cc2ccccc2[nH]1 [Comp. 59, N′-[4-(2-naphthyl)-1,3-thiazol-2-yl]-1H-indole-2-carbohydrazide] | – | 1.9 | – | 130 | 138 | Cytotoxic at 5 d
– | – | – | N#Cc1ccc(-c2csc(NNC(=O)c3cc4ccccc4[nH]3)n2)cc1 [Comp. 57, N′-[4-(4-cyanophenyl)-1,3-thiazol-2-yl]-1H-indole-2-carbohydrazide] | 49.3 | 2.7 | – | > 200 | > 200 | –
> 200 | 112 | – | COc1ccc(C(=O)NNc2nc(C3C4CC5CC(C4)CC3C5)cs2)cc1 (centres unmarked) [Comp. 65, N′-[4-(2-adamantyl)-1,3-thiazol-2-yl]-4-mathoxybenzohydrazide] | – | 39.4 | 42.1 | – | – | –
28.7 | 19.7 | – | N#Cc1ccc(-c2csc(NNC(=O)c3cccc(F)c3)n2)cc1 [Comp. 67, N′-[4-(4-cyanophenyl)-1,3-thiazol-2-yl]-3-fluorobenzohydrazide] | – | 19.8 | – | – | – | Cytotoxic at 5 d
1.4 | 2 | – | O=C(NNc1nc(-c2ccc(N3CCCC3)cc2)cs1)c1cccnc1 [Comp. 10, N′-[4-(4-pyrrolidin-1-ylphenyl)-1,3-thiazol-2-yl]nicotinohydrazide] | – | 12.5 | 62.5 | – | – | –
– | – | – | O=C(NNc1nc2c(s1)Cc1ccccc1-2)c1cc2ccccc2[nH]1 [Comp. 52, N′-8H-indeno[1,2-d][1,3]thiazol-2-yl-1H-indole-2-carbohydrazide] | 53.2 | −9.6 | – | 49.4 | 89.1 | –
> 200 | 189 | – | COc1cc(-c2csc(NNC(=O)c3ccc(C(F)(F)F)cc3)n2)cc(OC)c1O [Comp. 51, N′-[4-(4-hydroxy-3,5-dimethoxyphenyl)-1,3-thiazol-2-yl]-4-(trifluoromethyl)benzohydrazide] | – | −10.4 | 42.6 | – | – | –

SMILES | DC50 (tau construct K19; [1]) [µM] | IC50 (tau construct K19; [2]) [µM] | Kd (tau construct K18) [µM] | inhibition at 10 µM (N2a/K18ΔK280 cells) [%] | LDH (uninduced N2A cells) [%] | inhibition at 10 µM (N2a/K18ΔK280 cells; [3]) [%] | IC50 (tau construct K19) [µM] | DC50 (tau construct K19; [4]) [µM] | Inhibition in cells (result in words: cytotoxicity) (N2a/K18ΔK280 cells; N2a/K18ΔK280 cells, 5 days)
O=C(NNc1nc(-c2ccc([N+](=O)[O-])cc2)cs1)c1ccc2c(c1)OCO2 [Comp. 13, N′-[4-(4-nitrophenyl)-1,3-thiazol-2-yl]-1,3-benzodioxole-5-carbohydrazide] | 0.7 | 3.9 | – | 66.1 | 9.3 | – | – | – | –
Cc1nc(NNC(=O)c2ccc(F)cc2)sc1-c1ccc(Br)cc1 [Comp. 63, N′-[5-(4-bromophenyl)-4-methyl-1,3-thiazol-2-yl]-4-fluorobenzohydrazide] | 15.9 | 13.6 | – | 50 | 1.2 | – | – | – | –
